According to patent publication US8071625B2, “Certain chemical entities, compositions, and methods” (Cytokinetics, Inc., priority 2006, dated 2011):

Target: T1, crosslinked smooth muscle actomyosin (chicken gizzard smooth muscle myosin subfragment-1 crosslinked to cardiac or skeletal actin) (Gallus gallus, UniProt P10587)
T1 construct: chicken gizzard smooth muscle myosin subfragment-1; from tissue; host or cells: chicken gizzard
Experiment: Lead optimization pyruvate kinase/horseradish peroxidase/pyruvate oxidase-coupled ATPase assay (compound dose response)
Format: biochemical
Details: read-out: IC50 Arithmetic Mean
Description: Screening assays were performed using a pyruvate kinase and lactate dehydrogenase-coupled ATPase assay containing the following reagents: Potassium PIPES (50 mM), MgCl2 (3 mM), KCl (100 mM), ATP (0.15 mM), DTT (1 mM), BSA (0.1 mg/ml), NADH (0.5 mM), PEP (1.5 mM), pyruvate kinase (4 U/ml), lactate dehydrogenase (8 U/ml), and antifoam (50 ppm) (concentrations expressed are final assay concentrations). The pH was adjusted to 6.80 at 22° C. by addition of potassium hydroxide. Lead optimization assays were performed with a more sensitive pyruvate kinase/horseradish peroxidase/pyruvate oxidase-coupled ATPase assay containing the following reagents: Potassium PIPES (12 mM), MgCl2 (2 mM), KCl (100 mM), ATP (0.15 mM), BSA (0.05 mg/ml), potassium phosphate (2 mM), amplex red (0.1 mM), PEP (0.1 mM), pyruvate kinase (4 U/ml), horseradish peroxidase (0.5 U/ml), pyruvate oxidase (0.5 U/ml), and antifoam (50 ppm) (concentrations expressed are final assay concentrations). The pH was adjusted to 7.00 at 22° C. by addition of potassium hydroxide.
The protein components specific to this assay are chicken gizzard smooth muscle myosin subfragment-1 that has been chemically crosslinked to either cardiac or skeletal actin using an excess of 1-Ethyl-3-[3-dimethylaminopropyl]carbodiimide hydrochloride and N-hydroxysuccinimide. The exact concentration of the crosslinked smooth muscle myosin in the assay is determined empirically, by titration to achieve a desired rate of ATP hydrolysis. The concentration varies between protein preparations due to variations in the fraction of active molecules in each preparation.
Compound dose response assays are performed by first preparing a dilution series of test compound, each with an assay mixture containing potassium PIPES, MgCl2, KCl, ATP, BSA, potassium phosphate, amplex red, PEP, crosslinked smooth muscle actomyosin (subfragment-1), antifoam, and water. The assay is started by adding an equal volume of solution containing potassium Pipes, MgCl2, KCl, BSA, potassium phosphate, pyruvate kinase, horseradish peroxidase, pyruvate oxidase, antifoam, and water. ATP hydrolysis is monitored by measuring the fluorescence of amplex red (excitation at 480 nm, emission at 615 nm). The resulting dose response curve is fit by the 4 parameter equation y=Bottom+((Top-Bottom)/(1+((IC50/X)^Hill))). The IC50 is defined as the concentration at which ATPase activity is midway between the top and bottom of the dose response curve.

Row | SMILES | IC50 [nM]
1 | CCc1ccc(NC(=O)OCC2(C(=O)NCc3ncc[nH]3)CCN(C(=O)CNC(=O)OC(C)(C)C)CC2)cc1 [[(1-{2-[(tert-butoxy)carbonylamino]acetyl}-4-[N-(imidazol-2-ylmethyl)carbamoyl](4-piperidyl))methoxy]-N-(4-ethylphenyl)carboxamide] | 1770
2 | CCc1ccc(NC(=O)N(CCCOC)CC2(C(=O)NCc3ccccc3Cl)CCN(C(=O)CN)CC2)cc1 [N-[(1-(2-aminoacetyl)-4-{N-[(2-chlorophenyl)methyl]carbamoyl}(4-piperidyl))methyl][(4-ethylphenyl)amino]-N-(3-methoxypropyl)carboxamide] | 12400
3 | CCc1ccc(NC(=O)OCC2(C(=O)NCc3cccc(F)c3)CCN(C(=O)CN)CC2)cc1 [[(1-(2-aminoacetyl)-4-{N-[(3-fluorophenyl)methyl]carbamoyl}(4-piperidyl))methoxy]-N-(4-ethylphenyl)carboxamide] | 1030
4 | CCc1ccc(NC(=O)OCC(C)(NC(C)=O)C(=O)NCc2ccccc2Cl)cc1 (stereo not drawn) [2-(acetylamino)-N-[(2-chlorophenyl)methyl]-3-[N-(4-ethylphenyl)carbamoyloxy]-2-methylpropanamide] | 3140
5 | O=C(Nc1ccccc1Cl)OCC1(C(=O)NCc2ccccc2Cl)CCOCC1 [(4-{[N-(2-chlorophenyl)carbamoyloxy]methyl}(2H-3,4,5,6-tetrahydropyran-4-yl))-N-[(2-chlorophenyl)methyl]carboxamide] | 17300
6 | CC(=O)c1ccc(NC(=O)OCC2(C(=O)NCc3ccccc3Cl)CCN(C(=O)CN)CC2)cc1 [(4-{[N-(4-acetylphenyl)carbamoyloxy]methyl}-1-(2-aminoacetyl)(4-piperidyl))-N-[(2-chlorophenyl)methyl]carboxamide] | 1190
7 | COC(=O)c1ccccc1CNC(=O)C1(COC(=O)Nc2ccc(C(F)(F)F)cc2)CCN(C(=O)CN)CC1 [methyl 2-({[1-(2-aminoacetyl)-4-({N-[4-(trifluoromethyl)phenyl]carbamoyloxy}methyl)-4-piperidyl]carbonylamino}methyl)benzoate] | 2290
8 | Cc1cccc(F)c1NC(=O)OCC1(C(=O)NCc2ccccc2Cl)CCOCC1 [N-[(2-chlorophenyl)methyl](4-{[N-(6-fluoro-2-methylphenyl)carbamoyloxy]methyl}(2H-3,4,5,6-tetrahydropyran-4-yl))carboxamide] | 14200
9 | CCc1ccc(NC(=O)OCC(C)(NC(=O)OC)C(=O)NCc2ccccc2Cl)cc1 (stereo not drawn) [N-[(2-chlorophenyl)methyl]-3-[N-(4-ethylphenyl)carbamoyloxy]-2-(methoxycarbonylamino)-2-methylpropanamide] | 4090
10 | CCc1ccc(NC(=O)OCC2(C(=O)NCc3ccccc3CO)CCN(C(=O)CN)CC2)cc1 [(1-(2-aminoacetyl)-4-{[N-(4-ethylphenyl)carbamoyloxy]methyl}(4-piperidyl))-N-{[2-(hydroxymethyl)phenyl]methyl}carboxamide] | 949
11 | CCc1ccc(NC(=O)NCC(C)(C)C(=O)NCc2ccccc2Cl)cc1 [N-[(2-chlorophenyl)methyl]-3-{[(4-ethylphenyl)amino]carbonylamino}-2,2-dimethylpropanamide] | 8820
12 | NCC(=O)N1CCC(COC(=O)Nc2ccc(C(F)(F)F)cc2)(C(=O)NCc2cccc(Cl)c2Cl)CC1 [[(1-(2-aminoacetyl)-4-{N-[(2,3-dichlorophenyl)methyl]carbamoyl}(4-piperidyl))methoxy]-N-[4-(trifluoromethyl)phenyl]carboxamide] | 284

The remaining lines, values ahead:

Row | IC50 [nM] | SMILES
13 | 187 | CCc1ccc(NC(=O)OCC2(C(=O)NCc3ccccc3Cl)CCN(C(=O)C(O)CCN)CC2)cc1 (stereo not drawn) [(1-(4-amino-2-hydroxybutanoyl)-4-{[N-(4-ethylphenyl)carbamoyloxy]methyl}(4-piperidyl))-N-[(2-chlorophenyl)methyl]carboxamide]
14 | 3530 | CCc1ccc(NC(=O)NC[C@@H]2CCCN2C(=O)OCc2ccccc2Cl)cc1 [(2-chlorophenyl)methyl (2S)-2-({[(4-ethylphenyl)amino]carbonylamino}methyl)pyrrolidinecarboxylate]
15 | 1630 | CCc1ccc(NC(=O)OC[C@H](C)NC(=O)NCc2ccccc2Cl)cc1 [N-{(1S)-2-[N-(4-ethylphenyl)carbamoyloxy]-isopropyl}{[(2-chlorophenyl)methyl]amino}carboxamide]
16 | 585 | CCc1ccc(NC(=O)OCC2(C(=O)NCc3ccccc3Cl)CCN(C(=O)C(N)CCN)CC2)cc1 (stereo not drawn) [(1-(2,4-diaminobutanoyl)-4-{[N-(4-ethylphenyl)carbamoyloxy]methyl}(4-piperidyl))-N-[(2-chlorophenyl)methyl]carboxamide]
17 | 84 | CCc1ccc(NC(=O)OCCN(C)C(=O)NCc2ccccc2Cl)cc1 [{[(2-chlorophenyl)methyl]amino}-N-{2-[N-(4-ethylphenyl)carbamoyloxy]ethyl}-N-methylcarboxamide]
18 | 3690 | CCc1ccc(NC(=O)OCCOC(=O)NCc2ccccc2Cl)cc1 [(2-{N-[(2-chlorophenyl)methyl]carbamoyloxy}ethoxy)-N-(4-ethylphenyl)carboxamide]
19 | 3430 | CCc1ccc(NC(=O)OCCCC(=O)NCc2ccccc2Cl)cc1 [N-[(2-chlorophenyl)methyl]-4-[N-(4-ethylphenyl)carbamoyloxy]butanamide]
20 | 185 | CCc1ccc(NC(=O)OC[C@@H]2CCCN2C(=O)NCc2ccccc2Cl)cc1 [((2S)-2-{[N-(4-ethylphenyl)carbamoyloxy]methyl}pyrrolidinyl)-N-[(2-chlorophenyl)methyl]carboxamide]
21 | 5510 | CCc1ccc(NC(=O)OCC2(C(=O)NCc3ccccc3Cl)CC(O)C(O)C2)cc1 (stereo not drawn) [N-[(2-chlorophenyl)methyl](1-{[N-(4-ethylphenyl)carbamoyloxy]methyl}-3,4-dihydroxycyclopentyl)carboxamide]
22 | 210 | CCc1ccc(NC(=O)OCCN(CCO)C(=O)NCc2ccccc2Cl)cc1 [[2-({[(2-chlorophenyl)methyl]amino}-N-(2-hydroxyethyl)carbonylamino)ethoxy]-N-(4-ethylphenyl)carboxamide]
23 | 1020 | CCc1ccc(NC(=O)OCC2(C(=O)NCc3ccccc3Cl)CCN(C(=O)C(N)CN)CC2)cc1 (stereo not drawn) [(1-(2,3-diaminopropanoyl)-4-{[N-(4-ethylphenyl)carbamoyloxy]methyl}(4-piperidyl))-N-[(2-chlorophenyl)methyl]carboxamide]
24 | 1780 | CCc1ccc(NC(=O)OCC2(C(=O)NCc3ccccc3Cl)CCN(C(=O)C(C)NC)CC2)cc1 (stereo not drawn) [N-[(2-chlorophenyl)methyl](4-{[N-(4-ethylphenyl)carbamoyloxy]methyl}-1-[2-(methylamino)propanoyl](4-piperidyl))carboxamide]
25 | 1560 | CCc1ccc(NC(=O)O[C@@H]2CCCN(C(=O)NCc3ccccc3Cl)C2)cc1 [{(3R)-3-[N-(4-ethylphenyl)carbamoyloxy]piperidyl}-N-[(2-chlorophenyl)methyl]carboxamide]
26 | 1880 | CCc1ccc(NC(=O)OCC2(C(=O)NCc3ccccc3Cl)CCC2)cc1 [[({N-[(2-chlorophenyl)methyl]carbamoyl}cyclobutyl)methoxy]-N-(4-ethylphenyl)carboxamide]
27 | 1660 | CCc1ccc(NC(=O)OCC2(C(=O)NCc3ccccc3Cl)CCNCC2)cc1 [N-[(2-chlorophenyl)methyl](4-{[N-(4-ethylphenyl)carbamoyloxy]methyl}(4-piperidyl))carboxamide]
